US20250049795A1, “USE OF 5-(2-((5-(4-(DIMETHYLAMINO)PIPERIDIN-1-YL)PYRIDIN-2-YL)AMINO)-5-FLUOROPYRIMIDIN-4-YL)-N,4-DIMETHYLTHIAZOL-2-AMINE IN COMBINATION THERAPIES FOR CANCER” (Aucentra Therapeutics Pty Ltd, priority 2022, published 2025)
“Also recorded” adds a separate entry of the source.

Tests used:
[1] = molecular target: T1, CDK4/cyclin D1 (Homo sapiens, UniProt P11802); experiment: CDK inhibition, kinase assay (radiometric / ADP Glo); type: biochemical
T1 construct: purchased Eurofins Pharma Discovery or Reaction Biology Corporation (radiometric service)
Method: Serial dilutions of 1:3 were prepared for test compounds for 10 concentrations (from 10 μM to 0.5 nM). […] Positive and negative controls were performed in the presence and absence of CDK kinases, respectively. Half-maximal inhibition (IC50) values were calculated using a 4-parameter logistic non-linear regression model with Graphpad prism (Version 6.0). Apparent inhibition constants (Ki) values were calculated from Km (ATP) and IC50 values for the respective kinases.

[2] = tested on: T cell populations (CD3+, CD8+); experiment: Flow cytometry study of immune profiles in CT26.WT syngeneic mouse model; type: in vivo; conditions: day 14 of dosing, 3 mice of each group
Text: FIG. 2 provides further graphical results showing the in vivo anti-tumour efficacy of compound 1 in the CT26.WT syngeneic mouse model through activation of immunity. In the experiment, on day 14 of dosing, 3 mice of each group were sacrificed for flow cytometry study of immune profiles.
(§1) CT26.WT colorectal cancer cells were harvested and re-suspended in a 1:1 mixture of Matrigel™ (#354234; Corning Life Sciences, Corning, NY, United States of America) and serum-free RPMI-1640 medium, and thereafter injected sub-cutaneously (sc) (7×10^5 cells in a volume of 100 μL) into the right flank of each female BALB/c mouse. After the tumour volume reached ˜100 mm^3, the mice were randomised into […] (n=8/group) and given vehicle (1% CMC in water), compound 1 (150 mg/kg) once daily by oral administration (QD PO), Anti-PD1 (RMP1-14-derived mouse monoclonal antibody, Assay Matrix, Australia; […]) by intraperitoneal (ip) administration, or compound 1 plus anti-PD-1 antibody (FIG. 1). Compound 1 achieved significant tumour growth inhibition with a T/C=24% when used alone, and T/C=14% when used in the combination with the anti-PD-1 antibody, as measured on day 14 of dosing (FIG. 1).

[3] = tested on: other members of CDK family; experiment: Kinase profiling of CDK family; type: biochemical
Method: Eurofins Pharma Discovery or Reaction Biology Corporation Kinase Profiler services were used to measure inhibition of CDKs and other kinases by radiometric assay (RIA). Inhibition of CDK4/cyclin D1, CDK6/cyclin D3 and CDK9/cyclin T1 were also determined using ADP Glo Kinase assays (Promega Corporation, Madison WI, United States of America). Briefly, the kinase reaction for CDK4/cyclin D1 and CDK6/cyclin D3 was performed with kinase reaction buffer ([…] Tris base pH 7.5, 20 mM MgCl2, 0.4 mM DTT), 0.1 mg/ml BSA and RB-CTF substrate (retinoblastoma protein1 C-terminal fraction). For CDK9/cyclin T1, the kinase reaction was performed with standard assay buffer and Kinase Dilution Buffer and RBER-IRStide substrate. Serial dilutions of 1:3 were prepared for test compounds for 10 concentrations (from 10 μM to 0.5 nM). The kinase reactions were started by addition of ATP, incubated for 40 min at […] and then stopped by adding 10 μL of ADP Glo reagent. […] Luminescence was measured using an EnVision Multilabel plate reader (PerkinElmer, Buckinghamshire, United Kingdom). […] Half-maximal inhibition (IC50) values were calculated using a 4-parameter logistic non-linear regression model with Graphpad prism (Version 6.0). Apparent inhibition constants (Ki) values were calculated from Km (ATP) and IC50 values for the respective kinases.

[4] = tested on: CT26.WT colorectal cancer cells; experiment: In vivo anti-tumour activity in mice with a colorectal cancer syngeneic allograft; set-up: species or system mouse
Method: Murine triple-negative breast cancer EMT6 tumour cells (ATCC® CRL-2755™) and colorectal cancer CT26.WT cells (ATCC® CRL-2638™) were cultured and expanded in RPMI-1640 medium (Roswell Park Memorial Institute Medium-1640) with L-glutamine and sodium bicarbonate (Sigma-Aldrich, Macquarie Park, NSW, Australia) supplemented with 10% heat-inactivated foetal bovine serum (FBS). Cells were cultured in an incubator at 5% CO2 37° C.
as §1, with “1).” for “1). Compound 1 achieved significant tumour growth inhibition with a T/C=24% when used alone, and T/C=14% when used in the combination with the anti-PD-1 antibody, as measured on day 14 of dosing (FIG. 1).”

T1 sequence (P11802 whole entry): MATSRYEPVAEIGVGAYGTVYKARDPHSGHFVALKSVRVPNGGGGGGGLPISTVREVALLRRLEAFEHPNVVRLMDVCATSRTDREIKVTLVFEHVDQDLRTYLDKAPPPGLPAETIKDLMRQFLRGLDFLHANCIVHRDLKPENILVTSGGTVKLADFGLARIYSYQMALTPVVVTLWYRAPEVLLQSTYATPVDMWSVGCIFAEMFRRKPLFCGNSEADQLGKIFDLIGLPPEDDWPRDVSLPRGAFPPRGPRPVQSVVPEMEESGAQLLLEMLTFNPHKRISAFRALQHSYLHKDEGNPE
T1 sequence (P24385 whole entry partner): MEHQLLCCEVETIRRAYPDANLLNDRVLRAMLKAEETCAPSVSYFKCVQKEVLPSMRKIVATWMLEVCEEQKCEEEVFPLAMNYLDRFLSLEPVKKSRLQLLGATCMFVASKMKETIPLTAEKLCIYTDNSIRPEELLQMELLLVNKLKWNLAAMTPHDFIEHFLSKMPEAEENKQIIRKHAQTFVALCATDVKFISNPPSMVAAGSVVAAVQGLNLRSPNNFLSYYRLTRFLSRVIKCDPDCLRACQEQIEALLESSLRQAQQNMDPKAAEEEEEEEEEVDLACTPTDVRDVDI

CNc1nc(C)c(-c2nc(Nc3ccc(N4CCC(N(C)C)CC4)cn3)ncc2F)s1 [Compound 1, 5-(2-((5-(4-(dimethylamino)piperidin-1-yl)pyridin-2-yl)amino)-5-fluoropyrimidin-4-yl)-N,4-dimethylthiazol-2-amine]
selectivity for CDK4 over CDK6 [1]: 140 fold | T cell populations (% CD3+ and % CD8+) in spleen, blood and tumour samples [2]: increased T cell populations; also recorded: increased level | activity against other members of CDK family [3]: no activity | extended survival of animals ([4]; BALB/c mice, CT26.WT allograft, compound 1 150 mg/kg QD PO, anti-PD1 ip, p<0.001): 60% | survival of the mice (in words) ([4]; BALB/c mice, CT26.WT allograft, p<0.001): significantly prolong the survival | tumor volume in treatment vs control ratio (T/C) ([4]; female BALB/c mice, sc CT26.WT allograft, day 14 of dosing, compound 1 150 mg/kg QD PO, Anti-PD1 150 g/mouse/wk ip): 24%
